Measured values: patent publication US8664257B2, “Oxygen-substituted 3-heteroaroylamino-propionic acid derivatives and their use as pharmaceuticals” (Sanofi, priority 2010, dated 2014)
pIC50: −log10 of the molar value.

Biological target: T1, Recombinant human cathepsin A (Homo sapiens, UniProt P10619)
T1 construct: Recombinant human cathepsin A (residues 29-480, with a C-terminal 10-His tag); 10-His (C); purchased R&D Systems 1049-SE
T1 sequence (P10619 29-312 limits assumed): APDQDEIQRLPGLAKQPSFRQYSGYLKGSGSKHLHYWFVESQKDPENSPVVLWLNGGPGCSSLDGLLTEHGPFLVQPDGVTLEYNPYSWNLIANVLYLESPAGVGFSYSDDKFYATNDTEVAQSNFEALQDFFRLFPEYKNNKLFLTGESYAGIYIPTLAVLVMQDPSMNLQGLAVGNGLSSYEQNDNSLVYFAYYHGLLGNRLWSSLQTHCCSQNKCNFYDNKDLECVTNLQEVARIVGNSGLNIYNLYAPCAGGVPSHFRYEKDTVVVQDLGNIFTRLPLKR
T1 sequence (P10619 327-480 limits assumed): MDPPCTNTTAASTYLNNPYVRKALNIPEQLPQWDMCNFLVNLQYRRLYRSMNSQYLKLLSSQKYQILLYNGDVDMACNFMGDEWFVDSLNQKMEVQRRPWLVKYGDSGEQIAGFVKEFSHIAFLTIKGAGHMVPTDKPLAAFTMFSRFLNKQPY
Experiment: Cathepsin A inhibitory activity
Format: biochemical
Conditions: pharmacological test "Cathepsin A inhibitory activity"; IC50 given as class A/B/C; read-out: Activity (2): Cathepsin A inhibitory activity, IC50 class
How it was run: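 Human cathepsin A (res. 29-480, C-His10) pre-activated with cathepsin L (MES pH 6.0, DTT, 15 min, 37 °C; quenched with 10 μM E-64). Enzyme (833 ng/ml) preincubated 15 min RT with compound in MES pH 5.5/DTT, then 2 μM Bodipy FL-bradykinin for 15 min RT. Capillary electrophoresis product/substrate peak areas; IC50 from % inhibition.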

| pIC50 | Structure (SMILES) |
| --- | --- |
| 4.52 to 6.00 | O=C(O)CC(NC(=O)c1cc(O)n(-c2ccccc2)n1)c1cccc(Oc2ccc(Cl)cc2)c1 (stereo not drawn) [Example 173] |
| 4.52 to 6.00 | COc1cccc([C@H](CC(=O)O)NC(=O)c2cc(O)n(-c3ccccc3)n2)c1 [Example 165] |
| 4.52 to 6.00 | COc1ccc([C@H](CC(=O)O)NC(=O)c2cc(O)n(-c3cccc(Cl)c3)n2)cn1 [Example 269] |

Second part, the compound before the results:

| Structure (SMILES) | pIC50 |
| --- | --- |
| COc1ccc(C(CC(=O)O)NC(=O)c2cc(O)n(-c3ccc(F)cc3F)n2)c(Cl)c1 (stereo not drawn) [Example 179] | 6.00 to 7.00 |
| O=C(O)C[C@@H](NC(=O)c1cc(O)n(-c2ccccc2Cl)n1)c1ccc(-c2ccc(F)cc2)cc1 [Example 149] | > 7.00 |
| O=C(O)C[C@H](NC(=O)c1cc(O)n(-c2ccccc2F)n1)c1ccc(F)cc1 [Example 236] | 6.00 to 7.00 |
| O=C(O)C[C@H](NC(=O)c1cc(O)n(-c2ccccc2F)n1)c1cccnc1 [Example 140] | 6.00 to 7.00 |

Same assay, conditions: read-out: Activity (2): Cathepsin A inhibitory activity (IC50 class)

| pIC50 | Structure (SMILES) |
| --- | --- |
| > 7.00 | Cc1cccc(C(CC(=O)O)NC(=O)c2cc(OCC3CC3)n(-c3ccccc3F)n2)c1C (stereo not drawn) [Example 703] |
| 6.00 to 7.00 | CCOc1cc(C(=O)N[C@@H](CC(=O)O)c2ccccc2)nn1-c1ccccc1Cl [Example 726] |
| > 7.00 | CCOc1cc(C(=O)N[C@@H](CC(=O)O)c2cccc(Cl)c2Cl)nn1-c1ccccc1Cl [Example 742] |

Second part, the compound before the results:

| Structure (SMILES) | pIC50 |
| --- | --- |
| COc1cc(C(=O)N[C@@H](CC(=O)O)c2ccccc2)nn1-c1ccccc1F [Example 665] | > 7.00 |
| CC(C)(C)C(=O)COc1cc(C(=O)N[C@@H](CC(=O)O)c2ccccc2Cl)nn1-c1ccccc1F [Example 777, (S)-3-(2-Chloro-phenyl)-3-{[5-(3,3-dimethyl-2-oxo-butoxy)-1-(2-fluoro-phenyl)-1H-pyrazole-3-carbonyl]-amino}-propionic acid] | > 7.00 |
| CCOc1cc(C(=O)N[C@@H](CC(=O)O)c2ccc(Cl)cc2)nn1-c1ccccc1F [Example 713] | > 7.00 |
| Cc1ccccc1[C@H](CC(=O)O)NC(=O)c1cc(O)n(-c2ccc(S(N)(=O)=O)cc2)n1 [Example 602] | 4.52 to 6.00 |
| CCOc1cc(C(=O)NC(CC(=O)O)c2cccc(C)c2C)nn1-c1ccccc1F (stereo not drawn) [Example 723] | > 7.00 |
| Cc1ccccc1[C@H](CC(=O)O)NC(=O)c1cc(OCCC(C)(C)C)n(-c2ccccc2F)n1 [Example 659] | > 7.00 |
| Cc1ccccc1[C@H](CC(=O)O)NC(=O)c1cc(OCc2cccc(C(F)(F)F)c2)n(-c2ccccc2F)n1 [Example 624] | 6.00 to 7.00 |
| Cc1ccccc1[C@H](CC(=O)O)NC(=O)c1cc(OC[C@H]2CCC(=O)N2)n(-c2ccccc2F)n1 [Example 652] | > 7.00 |
| Cc1ccccc1[C@H](CC(=O)O)NC(=O)c1cc(OCc2ccccc2C(F)(F)F)n(-c2ccccc2F)n1 [Example 623] | 6.00 to 7.00 |
| COc1ccc(C(CC(=O)O)NC(=O)c2cc(OC)n(-c3ccccc3F)n2)c(C)c1 (stereo not drawn) [Example 672, 3-{[1-(2-Fluoro-phenyl)-5-methoxy-1H-pyrazole-3-carbonyl]-amino}-3-(4-methoxy-2-methyl-phenyl)-propionic acid] | > 7.00 |

Same assay, conditions: read-out: Activity (2): Cathepsin A inhibitory activity, IC50 class

| pIC50 | Structure (SMILES) |
| --- | --- |
| 4.52 to 6.00 | COc1ccc([C@H](CC(=O)O)NC(=O)c2cc(O)n(-c3ccc(Cl)cc3)n2)cn1 [Example 299] |
| 4.52 to 6.00 | O=C(O)C[C@H](NC(=O)c1cc(O)n(-c2ccc(F)cc2)n1)c1ccc(C(F)(F)F)cc1 [Example 351] |
| 4.52 to 6.00 | N#Cc1cccc([C@H](CC(=O)O)NC(=O)c2cc(O)n(-c3ccc(F)cc3)n2)c1 [Example 340] |
| 4.52 to 6.00 | O=C(O)C[C@H](NC(=O)c1cc(O)n(-c2ccc(Cl)cc2)n1)c1cccc(Cl)c1 [Example 280] |
| 6.00 to 7.00 | O=C(O)CC(NC(=O)c1cc(O)n(-c2cccc(F)c2)n1)c1ccc(OC(F)(F)F)cc1 (stereo not drawn) [Example 315] |
| 6.00 to 7.00 | Cc1cc(F)ccc1C(CC(=O)O)NC(=O)c1cc(O)n(-c2ccccc2)n1 (stereo not drawn) [Example 85] |
| 4.52 to 6.00 | N#Cc1ccc([C@H](CC(=O)O)NC(=O)c2cc(O)n(-c3ccc(Cl)cc3)n2)cc1 [Example 272] |
| 6.00 to 7.00 | O=C(O)C[C@H](NC(=O)c1cc(O)n(-c2cccc(F)c2)n1)c1ccc(F)cc1 [Example 311] |

Continued, compound first:

| Structure (SMILES) | pIC50 |
| --- | --- |
| CC(C)C(C)(O)COc1cc(C(=O)NC(CC(=O)O)C2CCCCC2)nn1-c1ccccc1F (stereo not drawn) [Example 813, 3-Cyclohexyl-3-{[1-(2-fluoro-phenyl)-5-(2-hydroxy-2,3-dimethyl-butoxy)-1H-pyrazole-3-carbonyl]-amino}-propionic acid] | > 7.00 |
| N#Cc1ccc([C@H](CC(=O)O)NC(=O)c2cc(O)n(-c3ccc(F)cc3)n2)cc1 [Example 341] | 6.00 to 7.00 |
| CC(C)(C)[C@@H](O)COc1cc(C(=O)N[C@@H](CC(=O)O)c2ccc(Cl)cc2)nn1-c1ccccc1F [Example 828, (S)-3-(4-Chloro-phenyl)-3-{[1-(2-fluoro-phenyl)-5-((R)-2-hydroxy-3,3-dimethyl-butoxy)-1H-pyrazole-3-carbonyl]-amino}-propionic acid] | 6.00 to 7.00 |
| COc1ccc([C@H](CC(=O)O)NC(=O)c2cc(OC[C@@](C)(O)C(C)C)n(-c3ccccc3F)n2)cc1 [Example 840, (S)-3-{[1-(2-Fluoro-phenyl)-5-((S)-2-hydroxy-2,3-dimethyl-butoxy)-1H-pyrazole-3-carbonyl]-amino}-3-(4-methoxy-phenyl)-propionic acid] | 4.52 to 6.00 |
| CC(C)(C)[C@@H](O)COc1cc(C(=O)N[C@@H](CC(=O)O)c2cccc(Cl)c2)nn1-c1ccccc1F [Example 795, (S)-3-(3-Chloro-phenyl)-3-{[1-(2-fluoro-phenyl)-5-((R)-2-hydroxy-3,3-dimethyl-butoxy)-1H-pyrazole-3-carbonyl]-amino}-propionic acid] | > 7.00 |
| Cc1ccc(C)c(-n2nc(C(=O)NC(C)(C)CC(=O)O)cc2O)c1 [Example 8] | 4.52 to 6.00 |
| CC(C)(C)c1ccc(C(CC(=O)O)NC(=O)c2cc(O)n(-c3ccccc3)n2)cc1 (stereo not drawn) [Example 66] | 4.52 to 6.00 |
| O=C(O)CC(NC(=O)c1cc(O)n(-c2ccc(F)cc2)n1)c1cccc(Cl)c1F (stereo not drawn) [Example 361] | 6.00 to 7.00 |
| O=C(O)CC(NC(=O)c1cc(O)n(-c2ccccc2)n1)c1ccc(Oc2ccccc2)cc1 (stereo not drawn) [Example 102] | 6.00 to 7.00 |
| CC(C)[C@](C)(O)COc1cc(C(=O)N[C@H](CC(=O)O)Cc2ccc(C#N)cc2)nn1-c1ccccc1F [Example 834, (S)-4-(4-Cyano-phenyl)-3-{[1-(2-fluoro-phenyl)-5-((S)-2-hydroxy-2,3-dimethyl-butoxy)-1H-pyrazole-3-carbonyl]-amino}-butyric acid] | 4.52 to 6.00 |

Same assay, conditions: recombinant human cathepsin A 833 ng/ml, Bodipy FL-labeled bradykinin 2 μM, pH 5.5; read-out: CATH-A IC50

| pIC50 | Structure (SMILES) |
| --- | --- |
| 6.73 | Cc1ccc([C@H](CC(=O)O)NC(=O)c2cc(O)n(-c3ccc(F)cc3F)n2)cc1 [Example 454, (S)-3-{[1-(2,4-Difluoro-phenyl)-5-hydroxy-1H-pyrazole-3-carbonyl]-amino}-3-p-tolyl-propionic acid] |
| 6.79 | O=C(O)C[C@H](NC(=O)c1cc(O)n(-c2ccccc2Cl)n1)c1ccccc1Cl [Example 507, (S)-3-(2-Chloro-phenyl)-3-{[1-(2-chloro-phenyl)-5-hydroxy-1H-pyrazole-3-carbonyl]-amino}-propionic acid] |

The remaining lines, values behind:

| Structure (SMILES) | pIC50 |
| --- | --- |
| O=C(O)C[C@H](NC(=O)c1cc(O)n(-c2cccc(Cl)c2)n1)c1ccccc1Cl [Example 514, (S)-3-(2-Chloro-phenyl)-3-{[1-(3-chloro-phenyl)-5-hydroxy-1H-pyrazole-3-carbonyl]-amino}-propionic acid] | 6.52 |
| O=C(O)CC(NC(=O)c1cc(O)n(-c2ccc(Cl)cc2)n1)c1cc(F)ccc1F (stereo not drawn) [Example 472, 3-{[1-(4-Chloro-phenyl)-5-hydroxy-1H-pyrazole-3-carbonyl]-amino}-3-(2,5-difluoro-phenyl)-propionic acid] | 5.39 |

Same assay, conditions: recombinant human cathepsin A; read-out: Activity (2): Cathepsin A inhibitory activity, IC50 class

| pIC50 | Structure (SMILES) |
| --- | --- |
| 6.00 to 7.00 | Cc1ccc([C@H](CC(=O)O)NC(=O)c2cc(O)n(-c3ccc(F)cc3F)n2)cc1 [Example 454, (S)-3-{[1-(2,4-Difluoro-phenyl)-5-hydroxy-1H-pyrazole-3-carbonyl]-amino}-3-p-tolyl-propionic acid] |
| 6.00 to 7.00 | O=C(O)CC(NC(=O)c1cc(O)n(-c2cccc(F)c2)n1)c1cc(F)ccc1C(F)(F)F (stereo not drawn) [Example 486] |
| 6.00 to 7.00 | O=C(O)C[C@H](NC(=O)c1cc(O)n(-c2ccccc2Cl)n1)c1ccccc1Cl [Example 507, (S)-3-(2-Chloro-phenyl)-3-{[1-(2-chloro-phenyl)-5-hydroxy-1H-pyrazole-3-carbonyl]-amino}-propionic acid] |
| 4.52 to 6.00 | CC[C@@H](C)NC(=O)C[C@H](NC(=O)c1cc(OC)n(-c2ccccc2F)n1)c1ccccc1C [Example 918, 1-(2-Fluoro-phenyl)-5-methoxy-1H-pyrazole-3-carboxylic acid [(S)-2-((R)-sec-butylcarbamoyl)-1-o-tolyl-ethyl]-amide] |
| > 7.00 | COc1cc(C(=O)N[C@@H](CC(=O)NCC(C)(C)C)c2ccccc2C)nn1-c1ccccc1F [Example 924, 1-(2-Fluoro-phenyl)-5-methoxy-1H-pyrazole-3-carboxylic acid [(S)-2-(2,2-dimethyl-propylcarbamoyl)-1-o-tolyl-ethyl]-amide] |
| 6.00 to 7.00 | COc1cccc([C@H](CC(=O)O)NC(=O)c2cc(O)n(-c3cccc(Cl)c3)n2)c1OC [Example 417] |

The remaining lines, values behind:

| Structure (SMILES) | pIC50 |
| --- | --- |
| O=C(O)C[C@H](NC(=O)c1cc(O)n(-c2cccc(Cl)c2)n1)c1ccccc1Cl [Example 514, (S)-3-(2-Chloro-phenyl)-3-{[1-(3-chloro-phenyl)-5-hydroxy-1H-pyrazole-3-carbonyl]-amino}-propionic acid] | 6.00 to 7.00 |
| O=C(O)CC(NC(=O)c1cc(O)n(-c2ccc(Cl)cc2)n1)c1cc(F)ccc1F (stereo not drawn) [Example 472, 3-{[1-(4-Chloro-phenyl)-5-hydroxy-1H-pyrazole-3-carbonyl]-amino}-3-(2,5-difluoro-phenyl)-propionic acid] | 4.52 to 6.00 |
| O=C(O)C[C@H](NC(=O)c1cc(O)n(-c2cccc(Cl)c2)n1)c1cccc(F)c1 [Example 414] | 4.52 to 6.00 |
